Results: ChEMBL document CHEMBL3706492, “CYP3A4-mediated hepatic metabolism of the HIV-1 protease inhibitor saquinavir in vitro” (Xenobiotica, 2002)

Key:
Settings in all cases: human, microsomes
[1] = (§1) Fraction of total metabolites recovered as M4; assay type: ADME, Liver, Microsome
[2] = as §1; assay type: ADME, Small intestine, Microsome
[3] = (§2) Fraction of total metabolites recovered as M10; assay type: ADME, Liver, Microsome
[4] = as §2; assay type: ADME, Small intestine, Microsome

| Compound recovery [1] | Compound recovery [2] | Compound recovery [3] | Compound recovery [4] | SMILES |
| --- | --- | --- | --- | --- |
| 21% | 21% | – | – | CC(C)(C)NC(=O)[C@@H]1C[C@@H]2C[C@@H](O)CC[C@@H]2CN1C[C@@H](O)[C@H](Cc1ccccc1)NC(=O)[C@H](CC(N)=O)NC(=O)c1ccc2ccccc2n1 |
| – | – | 6% | 6% | CC(C)(CO)NC(=O)[C@@H]1C[C@@H]2CCCC[C@@H]2CN1C[C@@H](O)[C@H](Cc1ccccc1)NC(=O)[C@H](CC(N)=O)NC(=O)c1ccc2ccccc2n1 |
